US12139464B2, “Simplified structural mimetics of AIPS as quorum sensing inhibitors” (Wisconsin Alumni Research Foundation, priority 2016, dated 2024)
“Also recorded” adds a separate entry of the source. Read-outs that look alike come from different tables or passages of the source. Positions of bridges follow the written chain, without caps; N, C: chain ends. Non-standard residues stand in square brackets, D forms with d. Residues, ends and D or L forms follow the SMILES beside them. Phe(3-Cl) = N[C@@H](Cc1cccc(Cl)c1)C(=O)O; Phe(4-Cl) = N[C@@H](Cc1ccc(Cl)cc1)C(=O)O; Phe(3-F) = N[C@@H](Cc1cccc(F)c1)C(=O)O; Cha = N[C@@H](CC1CCCCC1)C(=O)O; AEEA = NCCOCCOCC(=O)O; Dap = NC[CH](N)C(=O)O; Aoc = NCCCCCCCC(=O)O

Key:
[1] = target: S. aureus AgrC in group-IV (Staphylococcus aureus, UniProt Q309Z2); experiment: AgrC inhibition YFP reporter gene assay, S. aureus group-IV (AH1872); format: cell-based; settings: for AgrC activity, preliminary screening: 10 μM where stated, YFP fluorescence relative to 1% DMSO control
Method: (§1) Reporter Gene Assays: The peptidomimetics were assayed for AgrC I-IV inhibition using the four YFP reporter strains listed in Table 1. Peptide stock solutions were diluted with DMSO in serial dilutions, and 2 μL of the diluted solution was added to each of the wells in a black, clear-bottom 96-well microtiter plate (Costar). An overnight culture of S. aureus YFP strain (Table 1) was diluted 1:50 with fresh BHI (pH 7.35). A […] of diluted culture was added to each well of the microtiter plate containing peptide (resulting in a 1% DMSO solution). Plates were incubated at 37° C. with shaking at 200 rpm for 24 h. Fluorescence (excitation 500 nm/emission 540 nm) and optical density at 600 nm (OD600) of each well were then recorded using a BioTek Synergy 2 plate reader. […] Full dose response curves are provided in Figures S3A-D, S4A-D, S5A-D, S6A-D and S7A-F.
(§2) A first compound library of AIP mimetics was screened for AgrC modulatory activity in all four groups of S. aureus using strains containing yfp reporter. These strains are summarized in Table 1, and include the multidrug-resistant strain USA300 LAC.[17] In these S. aureus reporters, binding of the native AIP to AgrC activates YFP production and can be measured using fluorescence. Thus, compounds capable of inhibiting native AIP binding produce a reduction in fluorescence. Preliminary compound screening was performed at 10 μM in each strain; the full results of preliminary screening are shown in FIGS. 4A-4D. Key findings from these initial screens are summarized here. To simplify the discussion, the full library will be described as three smaller sub-libraries. In the first sub-library (termed nxLX), there is a linker with n=x methylenes, residue 3 is Leu, and residue 4 (X) is Leu, Ile, or Phe (FIG. 2A). The second and third sub-libraries (nxIX and nxFX) are identical to the first sub-library except that there is an Ile or Phe at residue 3, respectively.

[2] = target: S. aureus AgrC in group-I (Staphylococcus aureus, UniProt A0A0H2XKA3); experiment: AgrC inhibition YFP reporter gene assay, S. aureus group-I (AH1677); format: cell-based; settings: for AgrC activity, preliminary screening: 10 μM where stated, YFP fluorescence relative to 1% DMSO control
Method: as §1, §2

[3] = target: S. aureus AgrC in group-III (Staphylococcus aureus, UniProt O33590); experiment: AgrC inhibition YFP reporter gene assay, S. aureus group-III (AH1747); format: cell-based; settings: for AgrC activity, preliminary screening: 10 μM where stated, YFP fluorescence relative to 1% DMSO control
Method: as §1, §2

[4] = target: S. aureus AgrC in group-II (Staphylococcus aureus, UniProt O33587); experiment: AgrC inhibition YFP reporter gene assay, S. aureus group-II (AH430); format: cell-based; settings: for AgrC activity, preliminary screening: 10 μM where stated, YFP fluorescence relative to 1% DMSO control
Method: as §1, §2

[5] = Solubility in water; format: physicochemical
[6] = read-out: Group-IV IC50, 95% CI, YFP reporter strain, 24 h, value (95% CI)
[7] = read-out: Group-I IC50, 95% CI, YFP reporter strain, 24 h, value (95% CI)
[8] = read-out: Group-III IC50, 95% CI, YFP reporter strain, 24 h, value (95% CI)
[9] = read-out: Group-II IC50, 95% CI, YFP reporter strain, 24 h, value (95% CI)
[10] = read-out: IC50 Group-IV, Table 3, against S. aureus AgrC
[11] = read-out: IC50 Group-I, Table 3, against S. aureus AgrC
[12] = read-out: IC50 Group-III, Table 3, against S. aureus AgrC
[13] = read-out: IC50 Group-II, Table 3, against S. aureus AgrC

Row | SMILES | AgrC activity, preliminary screening ([1]; group-IV) | IC50 [1, 6] [nM] | AgrC activity, preliminary screening ([2]; group-I) | IC50 [2, 7] [nM] | AgrC activity, preliminary screening ([3]; group-III) | IC50 [3, 8] [nM] | AgrC activity, preliminary screening ([4]; group-II) | IC50 [4, 9] [nM] | water solubility [5] | IC50 [1, 10] [nM] | IC50 [2, 11] [nM] | IC50 [3, 12] [nM] | IC50 [4, 13] [nM] | also measured
1 | CC(=O)NC1CNC(=O)C(Cc2ccccc2)NC(=O)C(Cc2ccccc2)NC(=O)COCCOCCNC1=O (stereo not shown) [n7OFF amide] (Ac-[Dap][AEEA]FF; lactam 1-C; configuration not given here) | no significant activity | > 10000 | no significant activity | > 10000 | no significant activity | > 10000 | no significant activity | > 10000 | markedly more soluble in water than their parent thiolactones | – | – | – | – | –
2 | CC(=O)N[C@H]1CSC(=O)[C@H](Cc2cccc(F)c2)NC(=O)[C@H](CC2CCCCC2)NC(=O)COCCOCCNC1=O [n7OCha3fF] (Ac-C[AEEA][Cha][Phe(3-F)]; thioester 1-C) | – | – | – | – | – | – | – | – | – | 597 | 109 | 35 | 1380 | –
3 | CC(=O)N[C@H]1CSC(=O)[C@H](Cc2ccc(Cl)cc2)NC(=O)[C@H](Cc2ccccc2)NC(=O)COCCOCCNC1=O [n7OF4clF] (Ac-C[AEEA]F[Phe(4-Cl)]; thioester 1-C) | – | – | – | – | – | – | – | – | – | > 5000 | 2590 | 2480 | 113 | –
4 | CC(=O)N[C@H]1CSC(=O)[C@H](Cc2cccc(F)c2)NC(=O)[C@H](Cc2ccccc2)NC(=O)COCCOCCNC1=O [n7OF3fF] (Ac-C[AEEA]F[Phe(3-F)]; thioester 1-C) | – | – | – | – | – | – | – | – | – | > 5000 | 40 | 171 | 1210 | –
5 | CC(=O)N[C@H]1CSC(=O)[C@H](Cc2ccccc2)NC(=O)[C@H](Cc2ccccc2)NC(=O)COCCOCCNC1=O [n7OFF] (Ac-C[AEEA]FF; thioester 1-C) | modestly active | 5940 | approximately as active as t-AIP-II, n7FF, and n8FF | 181 | modestly active | 332 | approximately as active as t-AIP-II, n7FF, and n8FF | 583 | – | 5940 | 181 | 332 | 583 | more potent than n7FF ([2]; group-I): ~2 fold; more soluble in water than n7FF [5]: approximately 100 fold
6 | CC(=O)N[C@H]1CSC(=O)[C@H](Cc2cccc(F)c2)NC(=O)[C@H](CC2CCCCC2)NC(=O)CCCCCCCNC1=O [n7Cha3fF] (Ac-C[Aoc][Cha][Phe(3-F)]; thioester 1-C) | – | – | – | – | – | – | – | – | – | 1160 | 429 | 19 | 2340 | –
7 | CC(=O)N[C@H]1CSC(=O)[C@H](Cc2ccccc2)NC(=O)[C@H](Cc2ccccc2)NC(=O)CCCCCCCNC1=O [n7FF] (Ac-C[Aoc]FF; thioester 1-C) | minimal levels | 985 | minimal levels | 340 | minimal levels | 34.8 | minimal levels | 495 | relatively low water solubilities; also recorded: less soluble than AIP-III D4A in water | – | – | – | – | IC50 relative to that of t-AIP-II ([1]; group-IV): 3-7 fold; IC50 relative to that of t-AIP-II ([2]; group-I): 3-7 fold; IC50 relative to that of t-AIP-II ([3]; group-III): 3-7 fold; IC50 relative to that of t-AIP-II ([4]; group-II): 3-7 fold
8 | CC(=O)NC1CSC(=O)C(Cc2ccccc2)NC(=O)C(Cc2ccccc2)NC(=O)CCCCCCCCNC1=O (stereo not shown) [n8FF] | – | 3490 | – | 468 | – | 125 | – | 479 | relatively low water solubilities; also recorded: less soluble than AIP-III D4A in water | – | – | – | – | less potent than n7FF ([1]; group-IV): 4 fold; less potent than n7FF ([3]; group-III): 4 fold
9 | CC(=O)N[C@H]1CNC(=O)[C@H](Cc2ccccc2)NC(=O)[C@H](Cc2ccccc2)NC(=O)CCCCCCCCNC1=O [n8FF amide] | virtually no inhibition | – | far less active | 4740 | minimal levels | 2610 | minimal levels | 1340 | markedly more soluble in water than their parent thiolactones | – | – | – | – | –
10 | CC(=O)N[C@H]1CSC(=O)[C@H](Cc2cccc(Cl)c2)NC(=O)[C@H](Cc2ccccc2)NC(=O)COCCOCCNC1=O [n7OF3clF] (Ac-C[AEEA]F[Phe(3-Cl)]; thioester 1-C) | – | – | – | – | – | – | – | – | – | – | 225 | 1140 | 217 | –
11 | CC(=O)N[C@H]1CSC(=O)[C@H](Cc2ccccc2)NC(=O)[C@H](CC2CCCCC2)NC(=O)COCCOCCNC1=O [n7OChaF] (Ac-C[AEEA][Cha]F; thioester 1-C) | – | – | – | – | – | – | – | – | – | 1080 | 998 | 205 | 790 | –
12 | CC(=O)NC1CNC(=O)C(Cc2ccccc2)NC(=O)C(Cc2ccccc2)NC(=O)CCCCCCCNC1=O (stereo not shown) [n7FF amide] (Ac-[Dap][Aoc]FF; lactam 1-C; configuration not given here) | virtually no inhibition | – | far less active | 3940 | minimal levels | 573 | minimal levels | 2200 | markedly more soluble in water than their parent thiolactones | – | – | – | – | –
